Like-named read-outs stand apart in the source and are kept apart here.
Legend:
SHP2 (full length) = target: T1, SHP2 (full length) (Homo sapiens, UniProt Q06124); assay: Phosphatase assay (PTPase assay) with DiFMUP substrate; format: biochemical; conditions: SHP2 activated with SHP2 activating peptide; DiFMUP 80 μM, 2 hours; fluorescence; read-out: IC50 (PTPase aS say)
T1 construct: SHP2 (full length, diluted to 100 pM final concentration in reaction buffer, BPS bioscience, US); purchased BPS bioscience, US
T1 sequence (Q06124 1-593): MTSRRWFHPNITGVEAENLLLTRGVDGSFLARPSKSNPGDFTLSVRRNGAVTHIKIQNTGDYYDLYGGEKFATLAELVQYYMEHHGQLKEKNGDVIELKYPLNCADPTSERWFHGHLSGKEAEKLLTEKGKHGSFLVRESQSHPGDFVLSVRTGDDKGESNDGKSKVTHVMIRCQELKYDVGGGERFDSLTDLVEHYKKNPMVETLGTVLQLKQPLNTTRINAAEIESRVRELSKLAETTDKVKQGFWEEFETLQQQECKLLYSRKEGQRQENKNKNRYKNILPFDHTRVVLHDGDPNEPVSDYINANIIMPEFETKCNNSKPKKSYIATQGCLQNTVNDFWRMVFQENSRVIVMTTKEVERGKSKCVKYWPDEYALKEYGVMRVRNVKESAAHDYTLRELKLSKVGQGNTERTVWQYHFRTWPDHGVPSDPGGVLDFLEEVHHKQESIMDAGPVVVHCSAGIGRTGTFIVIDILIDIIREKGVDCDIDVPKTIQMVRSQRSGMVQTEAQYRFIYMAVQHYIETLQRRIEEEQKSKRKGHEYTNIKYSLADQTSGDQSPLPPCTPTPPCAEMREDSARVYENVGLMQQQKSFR

[1] = test system: phospho-ERK in MIA PaCa2 or H358 cells; assay: Phospho-ERK assay (AlphaLisa); format: cell-based; conditions: MIA PaCa2 or H358 cells, compound incubated 1.5 hours, read-out: IC50 (p-ERK)

Row | Compound | IC50 (SHP2 (full length)) [nM] | IC50 ([1]; 1.5 h) [nM] | IC50 [1] [nM]
1 | C[C@@H]1OCC2(CCN(c3cnc(Sc4ccc5ncn(CCN(C)S(C)(=O)=O)c(=O)c5c4Cl)cn3)CC2)[C@@H]1N [Example 123, N-(2-(6-((5-((3S,4S)-4-amino-3-methyl-2-oxa-8-azaspiro[4,5]decan-8-yl)pyrazin-2-yl)thio)-5-chloro-4-oxoquinazolin-3(4H)-yl]ethyl)-N-methylmethanesulfonamide] | < 3 | < 45 | 
2 | C[C@@H]1OCC2(CCN(c3cnc(Sc4ccc5c(c4Cl)S(=O)(=O)N(Cc4ccccc4)C=N5)cn3)CC2)[C@@H]1N [Example 124, 7-((5-((3S,4S)-4-amino-3-methyl-2-oxa-8-azaspiro[4,5]decan-8-yl)pyrazin-2-yl)thio)-2-benzyl-8-chloro-2H-benzo[e][1,2,4]thiadiazine 1,1-dioxide] | < 3 | < 45 | 
3 | C[C@@H]1OCC2(CCN(c3cnc(Sc4ccc5nc(Oc6ccccc6)[nH]c5c4Cl)cn3)CC2)[C@@H]1N [Example 125] | < 3 |  | < 45
4 | C[C@@H]1OCC2(CCN(c3cnc(Sc4ccc5nc(OC6CCOC6)[nH]c5c4Cl)cn3)CC2)[C@@H]1N (stereo partly drawn) [Example 126, (3S,4S)-8-(5-((7-chloro-2-((tetrahydrofuran-3-yl)oxy)-1H-benzo[d]imidazol-6-yl)thio)pyrazin-2-yl)-3-methyl-2-oxa-8-azaspiro[4,5]decan-4-amine] | 3 to 100 | 45 to 1500 | 
5 | COCCOc1nc2ccc(Sc3cnc(N4CCC5(CC4)CO[C@@H](C)[C@H]5N)cn3)c(Cl)c2[nH]1 [Example 127] | < 3 | < 45 | 
6 | C[C@@H]1OCC2(CCN(c3cnc(Sc4ccc5nc(Oc6cccnc6)[nH]c5c4Cl)cn3)CC2)[C@@H]1N [Example 128] | < 3 | < 45 | 
7 | C[C@@H]1OCC2(CCN(c3cnc(Sc4ccc5nc(OC6CCOC6)n(C)c5c4Cl)cn3)CC2)[C@@H]1N (stereo partly drawn) [Example 129, (3S,4S)-8-(5-((7-chloro-1-methyl-2-((tetrahydrofuran-3-yl)oxy)-1H-benzo[d]imidazol-6-yl)thio)pyrazin-2-yl)-3-methyl-2-oxa-8-azaspiro[4.5]decan-4-amine] | < 3 | < 45 | 
8 | C[C@@H]1OCC2(CCN(c3cnc(Sc4ccc5c(nc(OC6CCOC6)n5C)c4Cl)cn3)CC2)[C@@H]1N (stereo partly drawn) [Example 130] | < 3 | < 45 | 
9 | COCCn1cnc2ccc(Sc3nc(CO)c(N4CCC5(CC4)CO[C@@H](C)[C@H]5N)nc3C)c(Cl)c2c1=O [Example 131] | 3 to 100 |  | 45 to 1500
10 | C[C@@H]1OCC2(CCN(c3cnc(Sc4ccc5c(=O)n(Cc6ccccc6)cnc5c4Cl)cn3)CC2)[C@@H]1N [Example 132] | < 3 | < 45 | 
11 | C[C@@H]1OCC2(CCN(c3cnc(Sc4ccc5c(c4Cl)C(=O)N(Cc4ccccc4)C5)cn3)CC2)[C@@H]1N [Example 133, 6-((5-((3S,4S)-4-amino-3-methyl-2-oxa-8-azaspiro[4,5]decan-8-yl)-pyrazin-2-yl)thio)-2-benzyl-7-chloroisoindolin-1-one] | 3 to 100 | 45 to 1500 | 
12 | COCCn1cnc2ccc(Sc3ncc(N4CCC5(CC4)Cc4ncccc4[C@H]5N)nc3N)c(Cl)c2c1=O [Example 134] | 3 to 100 | 45 to 1500 | 
13 | COc1cccc(Cc2nc3ccc(Sc4cnc(N5CCC6(CC5)CO[C@@H](C)[C@H]6N)cn4)c(Cl)c3[nH]2)c1 [Example 135] | > 100 | > 1500 | 
14 | C[C@@H]1OCC2(CCN(c3cnc(Sc4ccc5nc(Cc6cnccn6)[nH]c5c4Cl)cn3)CC2)[C@@H]1N [Example 136, (3S,4S)-8-(5-((7-chloro-2-(pyrazin-2-ylmethyl)-1H-benzo[d]imidazol-6-yl)thio)pyrazin-2-yl)-3-methyl-2-oxa-8-azaspiro[4.5]decan-4-amine] | < 3 | < 45 | 
15 | C[C@@H]1OCC2(CCN(c3cnc(Sc4ccc5nc(Cc6cccnc6)[nH]c5c4Cl)cn3)CC2)[C@@H]1N [Example 137, (3S,4S)-8-(5-((7-chloro-2-(pyridin-3-ylmethyl)-1H-benzo[d]imidazol-6-yl)thio)pyrazin-2-yl)-3-methyl-2-oxa-8-azaspiro[4.5]decan-4-amine] | 3 to 100 | 45 to 1500 | 
16 | N[C@@H]1c2cccnc2CC12CCN(c1cnc(Sc3ccc4ncn(Cc5ccoc5)c(=O)c4c3Cl)cn1)CC2 [Example 138] | < 3 | < 45 | 
17 | C[C@@H]1OCC2(CCN(c3cnc(Sc4ccc5ncn(CC(C)(C)F)c(=O)c5c4Cl)cn3)CC2)[C@@H]1N [Example 139, 6-((5-((3S,4S)-4-amino-3-methyl-2-oxa-8-azaspiro[4.5]decan-8-yl)pyrazin-2-yl)thio)-5-chloro-3-(2-fluoro-2-methylpropyl)quinazolin-4(3H)-one] | 3 to 100 | 45 to 1500 | 
18 | N[C@@H]1c2cccnc2CC12CCN(c1cnc(Sc3ccc4ncn(CC5(F)COC5)c(=O)c4c3Cl)cn1)CC2 [Example 140, (S)-6-((5-(5-amino-5,7-dihydrospiro[yclopenta[b]pyridine-6,4′-piperidin]-1′-yl)pyrazin-2-yl)thio)-5-chloro-3-((3-fluorooxetan-3-yl)methyl)quinazolin-4(3H)-one] | < 3 | < 45 | 
19 | N[C@@H]1c2cccnc2CC12CCN(c1cnc(Sc3ccc4ncn(Cc5ccncn5)c(=O)c4c3Cl)cn1)CC2 [Example 141, (S)-6-((5-(5-amino-5,7-dihydrospiro[yclopenta[b]pyridine-6,4′-piperidin]-1′-yl)pyrazin-2-yl)thio)-5-chloro-3-(pyrimidin-4-ylmethyl)quinazolin-4(3H)-one] | < 3 | < 45 | 
20 | COC(C)Cn1cnc2ccc(Sc3cnc(N4CCC5(CC4)Cc4ncccc4[C@H]5N)cn3)c(Cl)c2c1=O (stereo partly drawn) [Example 142, 6-((5-((S)-5-amino-5,7-dihydrospiro[yclopenta[b]pyridine-6,4′-piperidin]-1′-yl)pyrazin-2-yl)thio)-5-chloro-3-(2-methoxypropyl)quinazolin-4(3H)-one] | < 3 | < 45 | 
21 | COCCn1cnc2ccc(Sc3ncc(N4CCC5(CC4)CO[C@@H](C)[C@H]5N)nc3N)c(Cl)c2c1=O [Example 143, 6-((3-amino-5-((3S,4S)-4-amino-3-methyl-2-oxa-8-azaspiro[4.5]decan 8-yl)pyrazin-2-yl)thio)-5-chloro-3-(2-methoxyethyl)quinazolin-4(3H)-one] | < 3 | < 45 | 
22 | COCCn1cnc2ccc(Sc3cnc(N4CCC5(CC4)Cc4ncsc4[C@H]5N)cn3)c(Cl)c2c1=O [Example 144, 6-[5-[(6S)-6-aminospiro[4,6-dihydrocyclopenta[d]thiazole-5,4′-piperidin]-1′-yl]pyrazin-2-yl]sulfanyl-5-chloro-3-(2-methoxyethyl)quinazolin-4-one] | < 3 | < 45 | 
23 | CC(C)(O)Cn1cnc2ccc(Sc3cnc(N4CCC5(CC4)Cc4ncsc4[C@@H]5N)cn3)c(Cl)c2c1=O [Example 146] | 3 to 100 | 45 to 1500 | 
24 | CC(C)(O)Cn1cnc2ccc(Sc3cnc(N4CCC5(CC4)Cc4ncsc4[C@H]5N)cn3)c(Cl)c2c1=O [Example 147, 6-[5-[(6S)-6-aminospiro[4,6-dihydrocyclopenta[d]thiazole-5,4′piperidin]1′-yl]pyrazin-2-yl]sulfanyl-5-chloro-3-(2-hydroxy-2-methyl-propyl)quinazolin-4-one] | < 3 | < 45 | 

— patent US12029739B2, “SHP2 inhibitor and use thereof” (KANAPH THERAPEUTICS INC., priority 2021, dated 2024)
